We go through 22 compounds from ChEMBL document CHEMBL4196140, “Spiro-Phthalides and Isocoumarins Isolated from the Marine-Sponge-Derived Fungus Setosphaeria sp. SCSIO41009” (J Nat Prod, 2018).

Structures are written as SMILES. Calls of active or inactive are those of the source. The calls are words filed in the database; no cut-off is given here.

In this assay the test system is Influenza A virus. In words: Antiviral activity against Influenza A virus (A/Puerto Rico/8/34(H1N1)) harboring H274Y mutant infected in MDCK cells assessed as inhibition of virus-induced cytopathic effect after 48 hrs by MTT assay. The following applies: A/Puerto Rico/8/1934(H1N1). Format: functional, organism-based. For orientation: Damage to the host cells serves as the signal in cytopathic effect assays.
As for `CCCC(=O)CC[C@H]1OC(=O)c2c1cc(O)c(OC)c2O`, the inhibition entry was “inactive”.

As for `CCC[C@H]1C[C@H](O)[C@@]2(OC(=O)c3c2cc(OC)c(OC)c3O)O1`, the inhibition entry was “inactive”.

`COCc1c(O)cc(C)c2c1Oc1c(C)cc(O)c(C)c1OC2=O`: the inhibition entry is “inactive”.

In the case of `CCCCc1c(OC)cc(=O)oc1CO`, the inhibition entry was “inactive”.

As for `COc1cc2c(c(O)c1OC)C(=O)O[C@@H]1C[C@H](C[C@@H](C)O)O[C@H]21`, the inhibition result was “inactive”.

For `CCC[C@H]1C[C@H](O)[C@]2(OC(=O)c3c2cc(OC)c(OC)c3O)O1`, the inhibition entry is “inactive”.

`CCC[C@@H]1C[C@H]2OC(=O)c3c(cc(O)c(OC)c3O)[C@@H]2O1`: the inhibition entry was “inactive”.

On to `CCCC(=O)CC[C@@H]1OC(=O)c2c1cc(OC)c(OC)c2O`, for which the inhibition result was “inactive”.

In the case of `CCCCOCc1c(O)cc(C)c2c1Oc1c(C)cc(O)c(C)c1OC2=O`, the inhibition entry was “inactive”.

`CCC[C@H]1C[C@H]2OC(=O)c3c(cc(OC)c(O)c3O)[C@H]2O1`: the inhibition result was “inactive”.

Take `CCCCC1=C(OC)C(=O)OC1(C)O` (racemic): the inhibition entry is “inactive”.

Take `COC(=O)CCCc1c(OC)cc(=O)oc1C`: the inhibition result is “inactive”.

Consider `COc1cc2c(c(O)c1OC)C(=O)O[C@@H]1C[C@H](CCC(=O)O)O[C@H]21`, for which the inhibition result was “inactive”.

With `COc1cc(=O)oc(C)c1CCC(C)O` (configuration not stated), the inhibition entry is “inactive”.

Regarding `COc1cc(=O)oc(C)c1CCCC(=O)O`, the inhibition result is “inactive”.

Consider `CC[C@H](O)[C@H]1C[C@H]2OC(=O)c3c(cc(OC)c(OC)c3O)[C@H]2O1`, for which the inhibition result was “inactive”.

Take `CCCCc1c(OC)cc(=O)oc1C`: the inhibition entry was “inactive”.

Turning to `COc1cc2c(c(O)c1OC)C(=O)O[C@@H]1C[C@H](CCCO)O[C@H]21`, the inhibition entry is “inactive”.

Consider `CC[C@@H](O)[C@H]1C[C@H]2OC(=O)c3c(cc(OC)c(OC)c3O)[C@H]2O1`, for which the inhibition entry was “inactive”.

For the compound `CCC[C@@H]1C[C@H]2OC(=O)c3c(cc(OC)c(OC)c3O)[C@@H]2O1`, the inhibition entry was “inactive”.

For the compound `CCC(O)Cc1c(OC)cc(=O)oc1C` (configuration not stated), the inhibition entry was “inactive”.

For the compound `CCC[C@H]1C[C@H]2OC(=O)c3c(cc(OC)c(OC)c3O)[C@@H]2O1`, the inhibition result is “inactive”.
